From patent US12076307B2, “Compositions for prevention or treatment of acute radiation syndrome and other radiation exposure” (priority 2017, dated 2024)

Columns and labels:
BCRP = target: T1, BCRP (Homo sapiens, UniProt Q9UNQ0); assay: Drug transporter inhibition, BCRP; format: in vitro ADME; conditions: 100 nM [3H] estrone-3-sulfate; transfected LLC-PK1 cells
T1 construct: expressed in transfected cells; host or cells: LLC-PK1
Experimental: (§1) This study examined the potential of EC-18 to interact with the transporter proteins that have been known to be involved in the absorption of commercially available drugs. EC-18 was pre-incubated with HEK-293 cells and LLC-PK1 cells that were transfected with the genes of most drug transporters as follows: OATP1B1, OATP1B3, OAT1, OAT3 and OCT2, and BCRP and P-gp, respectively.

SD rat [1] = assay: Embryo-fetal developmental toxicity study, SD rat; format: in vivo; conditions: for mortality: 0, 500, 1000, 2000 mg/kg
Text: (§2) Various toxicology studies have been performed. All studies were GLP-compliant unless otherwise noted.

[2] = Embryo-fetal developmental toxicity study, SD rat; format: in vivo; conditions: SD, rat, in vivo; definitive study; Oral 11 days
Text: as §2

[3] = test system: C57BL/6J mice, 680 cGy TBI; assay: 30-day survival in C57BL/6J mice after LD70/30 (680 cGy) TBI; format: in vivo, mouse; conditions: for Dead/Moribund, Females (percent) / Dead/Moribund, Males (percent): N=24; for Dead/Moribund, All Animals (percent): N=48
Experimental: The objective of this study was to evaluate the 30-day survival benefit of EC-18 in male and female C57BL/6J mice when administered by daily oral gavage at doses ranging from 100-375 mg/kg/day, for 30 consecutive days beginning approximately 24 hrs after a single LD70/30 dose (680 cGy) of TBI. The study had 4 dose groups, each with 24 animals of each sex, Group 1 animals were administered sterile PBS, Groups 2, 3, and 4 were administered EC-18 at 100, 250, and 375 mg/kg/day, respectively. Dose volumes were determined using the most recently recorded body weight. Survival was monitored for 30 days post irradiation, with early removal criterion used to determine morbidity. Clinical observations were recorded daily before administration of vehicle or test article. […] Body weights were recorded minimally 3 times per week, daily for animals with weight loss of ≥15%, or twice daily for animals with ≥20% weight loss.

OATP1B3 = target: T2, OATP1B3 (Homo sapiens, UniProt Q9NPD5); assay: Drug transporter inhibition, OATP1B3; format: in vitro ADME; conditions: 100 nM [3H] estradiol-17β-D-glucuronide; transfected HEK-293 cells
T2 construct: expressed in transfected cells; host or cells: HEK-293
T2 sequence (Q9NPD5 whole entry, species assumed): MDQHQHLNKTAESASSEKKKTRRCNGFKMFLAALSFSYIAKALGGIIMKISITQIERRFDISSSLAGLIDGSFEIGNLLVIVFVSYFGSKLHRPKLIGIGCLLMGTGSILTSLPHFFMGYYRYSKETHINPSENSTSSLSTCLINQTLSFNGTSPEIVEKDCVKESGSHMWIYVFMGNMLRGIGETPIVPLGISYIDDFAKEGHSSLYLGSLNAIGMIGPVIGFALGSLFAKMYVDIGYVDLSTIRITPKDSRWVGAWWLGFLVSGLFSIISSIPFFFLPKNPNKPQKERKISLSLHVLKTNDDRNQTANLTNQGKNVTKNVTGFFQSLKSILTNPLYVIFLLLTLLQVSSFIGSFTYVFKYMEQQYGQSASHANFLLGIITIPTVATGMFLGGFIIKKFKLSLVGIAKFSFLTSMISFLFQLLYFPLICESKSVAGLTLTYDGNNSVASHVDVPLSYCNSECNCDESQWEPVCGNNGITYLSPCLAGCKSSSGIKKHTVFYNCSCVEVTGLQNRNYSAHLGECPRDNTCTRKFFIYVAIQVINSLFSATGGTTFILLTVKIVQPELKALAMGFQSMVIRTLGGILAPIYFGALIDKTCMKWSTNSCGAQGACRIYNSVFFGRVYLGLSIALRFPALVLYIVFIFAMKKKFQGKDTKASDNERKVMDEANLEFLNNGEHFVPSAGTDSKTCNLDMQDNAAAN
Experimental: as §1

[4] = Safety assessment in clinical trials; format: in vivo, human
Experimental: AEs that were observed involved mild symptoms unrelated to EC-18 administration. […] In the clinical studies with pancreatic cancer patients, there were no SAEs associated with EC-18 administered twice daily (BID) for a total of 1000 mg/day.

SD rat [5] = assay: Immunotoxicity study; format: in vivo; conditions: Oral; 4 weeks; 0, 2000 mg/kg
Text: as §2

[6] = test system: mice, 5-FU + X-radiation 20 Gy on heads and necks; assay: CRIOM (chemoradiation-induced oral mucositis) murine model; format: in vivo, mouse
Text: Radiation-Induced Coagulopathy is worsened in more severe syndromes including mucositis in the oral cavity and GI. As described above, exposure to radiation stimulates DAMP release and DAMP recognized by PRR results in an inflammatory response that causes apoptosis, mucosal atrophy, and ulceration. Specifically, TLR-4 has been identified as a major PRR, which plays a critical role in the pathogenesis of mucosal injury (Vasconcelos et al., 2016). To investigate the mitigating effect of EC-18 against CRIOM, different doses of EC-18 were administered to mice daily. CRIOM mouse model was established using concurrent treatments with 5-FU (100 mg/kg, i.p.) and X-radiation (20 Gy) on heads and necks of mice. PBS or EC-18 (100 and 250 mg/kg, p.o.) was administered daily (n=5 for each group). The body weights of mice were observed, and the mice were sacrificed on day 9.

[7] = Plasma protein binding by rapid equilibrium dialysis, human
Experimental: The plasma protein binding ability of EC-18 was tested by rapid equilibrium dialysis (RED). The chamber separated by a dialysis tubing membrane (cut-off: 8 kDa) was filled on one side with rat or human plasma mixed with phosphate buffer and on the other side with rat or human plasma mixed with the test or standard reference material (test concentration: 1 μM).

[8] = In vitro metabolic stability / metabolite screening, human liver microsomes; format: in vitro ADME; conditions: for Mean Peak Area in LC-RID: Human, N=2
Experimental: [^14C]EC-18 or the positive control (7-ethoxycoumarin; 7-EC) reacted with microsomes prepared from hepatocytes of rats, dogs, monkeys, and humans, with or without cofactors, for 60 and 120 min. Then, the residual EC-18 concentration over time was measured by LC-RID ([^14C]EC-18) or LC-MS/MS (7-EC) (FIG. 63 and FIG. 64).
Each test system was designed to examine phase 1 metabolic reaction (test system A), phase 2 metabolic reaction (test system B), and non-enzymatic degradation.
The LC-RID chromatographic profiles of radioactive metabolites produced in the 2-hr incubation reaction mixtures of the same test systems A, B, and C used to assess the metabolic and non-metabolic elimination rates of EC-18 were compared to the LC-UV chromatographic profiles of the synthetic reference material. […] The relative radioactivity of EC-18 accounted for 42-67% of total radioactivity. […]. The peaks of M4 and M6 were determined in monkeys and humans. M1 was abundantly detected in all species, but it was assumed to be a peak of early elution. The LC-UV chromatograms of reaction mixtures in each test system (FIGS. 65A-65C) and the relative radioactivity of the screened metabolites are shown in Table 25.

T1 sequence (Q9UNQ0 whole entry, species assumed): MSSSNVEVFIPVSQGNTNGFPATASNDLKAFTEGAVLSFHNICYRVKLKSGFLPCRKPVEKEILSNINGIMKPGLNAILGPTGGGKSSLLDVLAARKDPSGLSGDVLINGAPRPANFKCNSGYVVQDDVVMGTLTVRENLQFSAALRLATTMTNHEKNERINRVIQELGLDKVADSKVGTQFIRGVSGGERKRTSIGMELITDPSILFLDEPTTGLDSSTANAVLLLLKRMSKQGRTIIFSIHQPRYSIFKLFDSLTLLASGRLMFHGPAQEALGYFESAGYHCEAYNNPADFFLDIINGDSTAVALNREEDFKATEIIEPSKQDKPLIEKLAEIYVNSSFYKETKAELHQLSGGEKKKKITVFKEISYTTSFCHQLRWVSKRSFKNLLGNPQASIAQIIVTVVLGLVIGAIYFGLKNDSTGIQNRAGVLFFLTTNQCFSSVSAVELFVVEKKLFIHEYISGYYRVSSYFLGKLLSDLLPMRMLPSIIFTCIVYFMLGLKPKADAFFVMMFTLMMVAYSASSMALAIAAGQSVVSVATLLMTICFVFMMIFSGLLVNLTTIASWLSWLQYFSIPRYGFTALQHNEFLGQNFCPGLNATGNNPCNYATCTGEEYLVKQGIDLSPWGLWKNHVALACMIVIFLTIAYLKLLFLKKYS

Q: With CCCCC/C=C\C/C=C\CCCCCCCC(=O)OC(COC(C)=O)COC(=O)CCCCCCCCCCCCCCC (centres unmarked) [EC-18, 1-palmitoyl-2-linoleoyl-3-acetylglycerol] as the compound, how does the IC50 (BCRP) read?
A: > 32 µM

Q: What about the “significant differences in implantation rate, male-to-female ratio of fetuses, fetal mortality rate vs control” value (SD rat [1]; DRF study, Oral 11 days) of the same compound?
A: There were no

Q: And the mortality (SD rat [1]; DRF study, Oral 11 days (day-7 to day-17 of pregnancy))?
A: No dead animals

Q: And the findings (SD rat [1]; definitive study, Oral 11 days)?
A: No specific findings

Q: What about the mortality (SD rat [1]; definitive study, Oral 11 days) of the same compound?
A: No dead animals

Q: And the NOAEL at 11 days [2]?
A: 2000 mg/kg/day

Q: What about the combined sex survival ([3]; Group 2, 100 mg/kg/day) of the same compound?
A: 21%

Q: And the “increased survival above vehicle control, females” value ([3]; Group 2, 100 mg/kg/day)?
A: 29%

Q: And the “survival, males” value ([3]; Group 2-4 (100-375 mg/kg/day))?
A: 0-8%

Q: What about the combined sex survival ([3]; Group 3, 250 mg/kg/day) of the same compound?
A: 25%

Q: And the “increased survival above vehicle control, females” value ([3]; Group 3, 250 mg/kg/day)?
A: 46%

Q: What about the combined sex survival ([3]; Group 4, 375 mg/kg/day) of the same compound?
A: 29%

Q: What about the “increased survival above vehicle control, females” value ([3]; Group 4, 375 mg/kg/day) of the same compound?
A: 46%

Q: What about the “Dead/Moribund, Females (percent)” value ([3]; Grp 2: 100 mg/kg) of the same compound?
A: 16 (67%)

Q: And the “Dead/Moribund, Males (percent)” value ([3]; Grp 2: 100 mg/kg)?
A: 22 (92%)

Q: What about the “Dead/Moribund, All Animals (percent)” value ([3]; Grp 2: 100 mg/kg) of the same compound?
A: 38 (79%)

Q: And the “Dead/Moribund, Females (percent)” value ([3]; Grp 3: 250 mg/kg)?
A: 12 (50%)

Q: And the “Dead/Moribund, Males (percent)” value ([3]; Grp 3: 250 mg/kg)?
A: 24 (100%)

Q: What about the “Dead/Moribund, All Animals (percent)” value ([3]; Grp 3: 250 mg/kg) of the same compound?
A: 36 (75%)

Q: What about the “Dead/Moribund, Females (percent)” value ([3]; Grp 4: 375 mg/kg) of the same compound?
A: 12 (50%)

Q: And the “Dead/Moribund, Males (percent)” value ([3]; Grp 4: 375 mg/kg)?
A: 22 (92%)

Q: And the “Dead/Moribund, All Animals (percent)” value ([3]; Grp 4: 375 mg/kg)?
A: 34 (71%)

Q: What about the “mean body weights vs vehicle” value ([3]; any study day) of the same compound?
A: no statistically significant differences

Q: What about the IC50 (OATP1B3) of the same compound?
A: > 32 µM

Q: What about the adverse events ([4]; five clinical trials) of the same compound?
A: no adverse events (AEs) that could be considered serious or severe

Q: What about the “SAEs associated with EC-18” value ([4]; pancreatic cancer patients, BID, total 1000 mg/day) of the same compound?
A: no SAEs

Q: What about the accumulation ([4]; single- and multiple-dose 500 to 4000 mg) of the same compound?
A: no accumulation with repeated-dosing was observed

Q: What about the immunotoxicity (SD rat [5]) of the same compound?
A: No immunotoxicity

Q: And the “thickness of the oral epithelium” value ([6]; ChemoRT + EC-18)?
A: protective effect

Q: And the “DAMPs (HMGB1, HSP90) in serum” value ([6]; ChemoRT + EC-18 250 mg/kg)?
A: subsided levels of DAMPs

Q: And the “MIP-2 and IL-6 in serum” value ([6]; ChemoRT + EC-18 250 mg/kg)?
A: substantially less systemic inflammation

Q: And the “expression level of CXCL2 and IL-6 mRNA in tongues” value ([6]; ChemoRT + EC-18 250 mg/kg)?
A: downregulated

Q: And the “necroptotic signaling axis (RIPK1, RIPK3, MLKL phosphorylation) in tongues” value ([6]; ChemoRT + EC-18 250 mg/kg)?
A: significantly modulated

Q: And the “neutrophils recruited at oral epithelium (IHC)” value ([6]; ChemoRT + EC-18 250 mg/kg)?
A: did not

Q: And the “OM score and rates of ulceration” value ([6]; ChemoRT + EC-18 100 and 250 mg/kg)?
A: statistically improvement of OM score and lower rates of ulceration dose-dependently

Q: And the body weight ([6]; ChemoRT + EC-18 100 and 250 mg/kg p.o. daily)?
A: did not exhibit a significant weight loss

Q: And the “Plasma Protein Binding Rate” value ([7]; Humans, 1 μM, 4 hrs RED, n=3)?
A: >99%

Q: And the fraction unbound at 4 hrs, 1 μM ([7]; human, plasma)?
A: < 0.01

Q: And the elimination rate ([8]; 1-hr reaction, test system A (Phase 1 metabolic reaction))?
A: 21.2%

Q: And the elimination rate ([8]; 1-hr reaction, test system B (Phase 2 metabolic reaction))?
A: 25.5%

Q: And the elimination rate ([8]; 1-hr reaction, test system C (non-enzymatic degradation))?
A: 26.5%

Q: What about the elimination rate ([8]; 2-hr reaction, test system A) of the same compound?
A: 32.8%

Q: And the elimination rate ([8]; 2-hr reaction, test system B)?
A: 35.4%

Q: What about the elimination rate ([8]; 2-hr reaction, test system C) of the same compound?
A: 32.6%

Q: And the “Mean Peak Area in LC-RID” value ([8]; A (NADPH added), [14C]EC-18 2 hrs)?
A: 67.2%

Q: And the “Mean Peak Area in LC-RID” value ([8]; B (NADPH, PAPS, UDPGA added), 2 hrs)?
A: 64.6%

Q: And the “Mean Peak Area in LC-RID” value ([8]; C (no cofactor added), 2 hrs)?
A: 67.4%
